US10722527B2, “Abiraterone acetate lipid formulations” (Capsugel Belgium NV, priority 2015, dated 2020)
Like-named read-outs stand apart in the source and are kept apart here.

Test: Equilibrium solubility of crystalline active in digestion medium / digested placebo LMP formulation
Format: physicochemical
Details: 37 °C, thermodynamic from solid
Procedure: In both cases, the majority of the active was solubilized in a lipid phase that phase-separated on centrifugation of the samples and most likely consisting of larger lipophilic colloids including multi-lamellar vesicles. Active drug in the aqueous phase (consisting of BS/PL mixed-micelles, lipid-enriched BS/PL mixed micelles and small vesicles) is considered the most readily available form for absorption.
In vitro digestion tests were performed as follows: 1 g of the active-containing formulation was dispersed in 40 mL fasted intestinal medium (2 mM Tris-maleate, 1.4 mM CaCl2.2H2O, and 150 mM NaCl, 3 mM sodium taurodeoxycholate and 0.75 mM phosphatidylcholine, 37° C.) using a pH-stat titrator as described by the LFCS Consortium (Williams, H D. et al., J. Pharm. Sci. 101 (2012), p. 3360-3380). […] Active concentration in the aqueous phase was measured by HPLC. […] Also thermodynamic solubility of the active was evaluated in digested placebo formulations for determining solubility in digested lipidic colloidal phases.

solubility thermodynamic (pH 6.5, aqueous with cosolvent or surfactant or cyclodextrin, digested placebo LMP formulation, read-out: Equilibrium solubility of crystalline active in digested LMP formulations): 0.121 mg/mL | solubility thermodynamic (pH 6.5, fassif, same fasted intestinal medium, without digested lipid formulation, read-out: Equilibrium solubility of the crystalline active in digestion medium): 0.027 mg/mL
SMILES: CC(=O)O[C@H]1CC[C@@]2(C)C(=CC[C@@H]3[C@@H]2CC[C@]2(C)C(c4cccnc4)=CC[C@@H]32)C1 [Abiraterone acetate]
